Reference: ChEMBL document CHEMBL3244029, “Synthesis and stereospecific antipsychotic activity of (-)-1-cyclopropylmethyl-4-(3-trifluoromethylthio-5H-dibenzo[a,d]cyclohepten-5-ylidene)piperidine” (J Med Chem, 1977)
“And” between values parts separate entries of the source, which are not always exact repeats. Identical values can stand only once. The source made the active and inactive calls. The calls are words filed in the database; no cut-off is given here.

Legend:
Mus musculus [1] = assay: Central anticholinergic activity against physostigmine-induced lethality in Carworth CF1 mouse assessed as animal death at 30 mg/kg, po treated 5 hrs before 1.6 mg/kg, sc physostigmine treatment and 2 mg/kg, ip atropine methyl nitrate treated 0.5 hrs before induction (reference value: 0%); assay type: functional
Mus musculus [2] = assay: Central anticholinergic activity against physostigmine-induced lethality in Carworth CF1 mouse assessed as animal death at 15 mg/kg, po treated 5 hrs before 1.6 mg/kg, sc physostigmine treatment and 2 mg/kg, ip atropine methyl nitrate treated 0.5 hrs before induction (reference value: 0%); assay type: functional
Mus musculus [3] = assay: Central anticholinergic activity against physostigmine-induced lethality in Carworth CF1 mouse assessed as animal death at 7.5 mg/kg, po treated 5 hrs before 1.6 mg/kg, sc physostigmine treatment and 2 mg/kg, ip atropine methyl nitrate treated 0.5 hrs before induction (reference value: 0%); assay type: functional
Mus musculus [4] = assay: Central anticholinergic activity against physostigmine-induced lethality in Carworth CF1 mouse assessed as animal death at 3.75 mg/kg, po treated 5 hrs before 1.6 mg/kg, sc physostigmine treatment and 2 mg/kg, ip atropine methyl nitrate treated 0.5 hrs before induction (reference value: 0%); assay type: functional
Saimiri [5] = assay: Antipsychotic activity in squirrel monkey assessed as inhibition of conditioned avoidance response measured as maximum number of shocks possible per 30 mins interval at 0.25 mg/kg, po after 0 to 30 mins dosing; assay type: functional
Saimiri [6] = assay: Antipsychotic activity in squirrel monkey assessed as inhibition of conditioned avoidance response measured as maximum number of shocks possible per 30 mins interval at 0.25 mg/kg, po after 30 to 60 mins dosing; assay type: functional
Saimiri [7] = assay: Antipsychotic activity in squirrel monkey assessed as inhibition of conditioned avoidance response measured as maximum number of shocks possible per 30 mins interval at 0.25 mg/kg, po after 60 to 90 mins dosing; assay type: functional
Saimiri [8] = assay: Antipsychotic activity in squirrel monkey assessed as inhibition of conditioned avoidance response measured as maximum number of shocks possible per 30 mins interval at 0.50 mg/kg, po after 90 to 120 mins dosing; assay type: functional; conditions: dose 0.5 mg/kg
Saimiri [9] = assay: Antipsychotic activity in squirrel monkey assessed as inhibition of conditioned avoidance response measured as maximum number of shocks possible per 30 mins interval at 0.50 mg/kg, po after 120 to 150 mins dosing; assay type: functional; conditions: dose 0.5 mg/kg
Saimiri [10] = assay: Antipsychotic activity in squirrel monkey assessed as inhibition of conditioned avoidance response measured as maximum number of shocks possible per 30 mins interval at 0.50 mg/kg, po after 150 to 180 mins dosing; assay type: functional; conditions: dose 0.5 mg/kg
Saimiri [11] = assay: Antipsychotic activity in squirrel monkey assessed as inhibition of conditioned avoidance response measured as maximum number of shocks possible per 30 mins interval at 1 mg/kg, po after 180 to 210 mins dosing; assay type: functional
Saimiri [12] = assay: Antipsychotic activity in squirrel monkey assessed as inhibition of conditioned avoidance response measured as maximum number of shocks possible per 30 mins interval at 1 mg/kg, po after 210 to 240 mins dosing; assay type: functional
Saimiri [13] = assay: Antipsychotic activity in squirrel monkey assessed as inhibition of conditioned avoidance response measured as maximum number of shocks possible per 30 mins interval at 1 mg/kg, po after 240 to 270 mins dosing; assay type: functional
Saimiri [14] = assay: (§1) Antipsychotic activity in squirrel monkey assessed as inhibition of conditioned avoidance response measured as maximum number of shocks possible per 30 mins interval at 1 mg/kg, po 6 days later animal received test compound followed by 0.75 mg/kg, im benztropine 15 mins later measured after 0 to 0.5 hrs of dosing; assay type: functional
Saimiri [15] = assay: as §1, with “after 0.5” for “after 0”, “to 1” for “to 0.5”; assay type: functional
Saimiri [16] = assay: as §1, with “after 1” for “after 0”, “to 1.5” for “to 0.5”; assay type: functional
Saimiri [17] = assay: as §1, with “after 1.5” for “after 0”, “to 2” for “to 0.5”; assay type: functional
Saimiri [18] = assay: as §1, with “after 2” for “after 0”, “to 2.5” for “to 0.5”; assay type: functional
Saimiri [19] = assay: as §1, with “after 2.5” for “after 0”, “to 3” for “to 0.5”; assay type: functional
Saimiri [20] = assay: as §1, with “after 3” for “after 0”, “to 3.5” for “to 0.5”; assay type: functional
Saimiri [21] = assay: as §1, with “after 3.5” for “after 0”, “to 4” for “to 0.5”; assay type: functional
Saimiri [22] = assay: as §1, with “after 4” for “after 0”, “to 4.5” for “to 0.5”; assay type: functional
Saimiri [23] = assay: Antipsychotic activity in squirrel monkey assessed as inhibition of conditioned avoidance response measured as maximum number of shocks possible per 30 mins interval at 1 mg/kg, po 10 days later animal received test compound and again saline measured after 0 to 0.5 hrs of dosing; assay type: functional
Saimiri [24] = assay: Antipsychotic activity in squirrel monkey assessed as inhibition of conditioned avoidance response measured as maximum number of shocks possible per 30 mins interval at 1 mg/kg, po 10 days later animal received test compound and again saline measured after 0.5 to 1 hrs of dosing; assay type: functional
Saimiri [25] = assay: Antipsychotic activity in squirrel monkey assessed as inhibition of conditioned avoidance response measured as maximum number of shocks possible per 30 mins interval at 1 mg/kg, po 10 days later animal received test compound and again saline measured after 1 to 1.5 hrs of dosing; assay type: functional
Saimiri [26] = assay: Antipsychotic activity in squirrel monkey assessed as inhibition of conditioned avoidance response measured as maximum number of shocks possible per 30 mins interval at 1 mg/kg, po 10 days later animal received test compound and again saline measured after 1.5 to 2 hrs of dosing; assay type: functional
Saimiri [27] = assay: Antipsychotic activity in squirrel monkey assessed as inhibition of conditioned avoidance response measured as maximum number of shocks possible per 30 mins interval at 1 mg/kg, po 10 days later animal received test compound and again saline measured after 2 to 2.5 hrs of dosing; assay type: functional
Saimiri [28] = assay: Antipsychotic activity in squirrel monkey assessed as inhibition of conditioned avoidance response measured as maximum number of shocks possible per 30 mins interval at 1 mg/kg, po 10 days later animal received test compound and again saline measured after 2.5 to 3 hrs of dosing; assay type: functional
Saimiri [29] = assay: Antipsychotic activity in squirrel monkey assessed as inhibition of conditioned avoidance response measured as maximum number of shocks possible per 30 mins interval at 1 mg/kg, po 10 days later animal received test compound and again saline measured after 3 to 3.5 hrs of dosing; assay type: functional
Saimiri [30] = assay: Antipsychotic activity in squirrel monkey assessed as inhibition of conditioned avoidance response measured as maximum number of shocks possible per 30 mins interval at 1 mg/kg, po 10 days later animal received test compound and again saline measured after 3.5 to 4 hrs of dosing; assay type: functional
Saimiri [31] = assay: Antipsychotic activity in squirrel monkey assessed as inhibition of conditioned avoidance response measured as maximum number of shocks possible per 30 mins interval at 1 mg/kg, po 10 days later animal received test compound and again saline measured after 4 to 4.5 hrs of dosing; assay type: functional
Mus musculus [32] = assay: Peripheral anticholinergic activity in po dosed Carworth CF1 mouse assessed as dose required to produce pupil dilation to 1.5 micrometer units in 50% mouse after 2 hrs; assay type: ADME, organism-based; conditions: in vivo
Mus musculus [33] = assay: Peripheral anticholinergic activity in po dosed Carworth CF1 mouse assessed as dose required to produce pupil dilation to 1.5 micrometer units in 50% mouse after 5 hrs; assay type: ADME, organism-based; conditions: in vivo
Saimiri [34] = assay: Antipsychotic activity in squirrel monkey assessed as inhibition of conditioned avoidance response at 27 mg/kg, po; assay type: functional, organism-based; set-up: dose 27 mg/kg
Saimiri [35] = assay: Antipsychotic activity in po dosed squirrel monkey assessed as inhibition of conditioned avoidance response measured as maximum number of shocks; assay type: functional
Rattus norvegicus = assay: Blockade of po dosed apomorphine-induced stereotyped behavior in Sprague-Dawley rat assessed as continuous sniffing, licking, gnawing, or biting; assay type: functional
Saimiri [36] = assay: Antipsychotic activity in squirrel monkey assessed as inhibition of conditioned avoidance response measured as maximum number of shocks possible per 30 mins interval at 1 mg/kg, po administered followed by saline 15 mins later measured after 1.5 to 2 hrs of dosing; assay type: functional
Saimiri [37] = assay: Antipsychotic activity in squirrel monkey assessed as inhibition of conditioned avoidance response measured as maximum number of shocks possible per 30 mins interval at 1 mg/kg, po administered followed by saline 15 mins later measured after 1 to 1.5 hrs of dosing; assay type: functional
Saimiri [38] = assay: Antipsychotic activity in squirrel monkey assessed as inhibition of conditioned avoidance response measured as maximum number of shocks possible per 30 mins interval at 1 mg/kg, po administered followed by saline 15 mins later measured after 0.5 to 1 hrs of dosing; assay type: functional
Saimiri [39] = assay: Antipsychotic activity in squirrel monkey assessed as inhibition of conditioned avoidance response measured as maximum number of shocks possible per 30 mins interval at 1 mg/kg, po administered followed by saline 15 mins later measured after 0 to 0.5 hrs of dosing; assay type: functional
Saimiri [40] = assay: Antipsychotic activity in squirrel monkey assessed as inhibition of conditioned avoidance response measured as maximum number of shocks possible per 30 mins interval at 1 mg/kg, po administered followed by saline 15 mins later measured after 2 to 2.5 hrs of dosing; assay type: functional
Saimiri [41] = assay: Antipsychotic activity in squirrel monkey assessed as inhibition of conditioned avoidance response measured as maximum number of shocks possible per 30 mins interval at 1 mg/kg, po administered followed by saline 15 mins later measured after 2.5 to 3 hrs of dosing; assay type: functional
Saimiri [42] = assay: Antipsychotic activity in squirrel monkey assessed as inhibition of conditioned avoidance response measured as maximum number of shocks possible per 30 mins interval at 1 mg/kg, po administered followed by saline 15 mins later measured after 3 to 3.5 hrs of dosing; assay type: functional
Saimiri [43] = assay: Antipsychotic activity in squirrel monkey assessed as inhibition of conditioned avoidance response measured as maximum number of shocks possible per 30 mins interval at 1 mg/kg, po administered followed by saline 15 mins later measured after 3.5 to 4 hrs of dosing; assay type: functional
Saimiri [44] = assay: Antipsychotic activity in squirrel monkey assessed as inhibition of conditioned avoidance response measured as maximum number of shocks possible per 30 mins interval at 1 mg/kg, po administered followed by saline 15 mins later measured after 4 to 4.5 hrs of dosing; assay type: functional
[45] = Saimiri, in Primates, po, read-out: ED50

FC(F)(F)Sc1ccc2c(c1)C(=C1CCN(CC3CC3)CC1)c1ccccc1C=C2 (single isomer, unassigned; atropisomer)
Activity (Mus musculus [1]): 85% and 63%
Activity (Mus musculus [2]): 100% and 85%
Activity (Mus musculus [3]): 95% and 80%
Activity (Mus musculus [4]): 100%
%max (Saimiri [5]): 0.34%
%max (Saimiri [6]): 0.34%
%max (Saimiri [7]): 0.68%
%max (Saimiri [8]): 17.4%
%max (Saimiri [9]): 39.4%
%max (Saimiri [10]): 97.4%
%max (Saimiri [11]): 100%
%max (Saimiri [12]): 100%
%max (Saimiri [13]): 100%
%max (Saimiri [14]): 2%
%max (Saimiri [15]): 7.6%
%max (Saimiri [16]): 5.7%
%max (Saimiri [17]): 5.3%
%max (Saimiri [18]): 8.7%
%max (Saimiri [19]): 4.3%
%max (Saimiri [20]): 4%
%max (Saimiri [21]): 3%
%max (Saimiri [22]): 3.7%
%max (Saimiri [23]): 0%
%max (Saimiri [24]): 1.7%
%max (Saimiri [25]): 42%
%max (Saimiri [26]): 52.7%
%max (Saimiri [27]): 69.3%
%max (Saimiri [28]): 42.7%
%max (Saimiri [29]): 70.3%
%max (Saimiri [30]): 73%
%max (Saimiri [31]): 64.3%
ED (Mus musculus [32]): > 120 mg/kg
ED (Mus musculus [33]): > 120 mg/kg

FC(F)(F)Sc1ccc2c(c1)C(=C1CCN(CC3CC3)CC1)c1ccccc1C=C2
inhibition (Saimiri [34]): inactive

O=C(CCCN1CCC(O)(c2ccc(Cl)cc2)CC1)c1ccc(F)cc1 [HALOPERIDOL]
ED50 (Saimiri [35]; [45]): 0.29 mg/kg
ED50 (Rattus norvegicus): 0.32 mg/kg

FC(F)(F)Sc1ccc2c(c1)C(=C1CCN(CC3CC3)CC1)c1ccccc1C=C2.O=P(O)(O)O
%max (Saimiri [36]): 62%
%max (Saimiri [37]): 61.3%
%max (Saimiri [38]): 9.6%
%max (Saimiri [39]): 0%
%max (Saimiri [40]): 65%
%max (Saimiri [41]): 69%
%max (Saimiri [42]): 66.7%
%max (Saimiri [43]): 90%
%max (Saimiri [44]): 82%
ED50 (Saimiri [35]): 0.99 mg/kg
ED50 (Saimiri [35]; [45]): 0.51 mg/kg
